# Assay results taken from patent publication US20240076297A1, “ADENOSINE A2A AND A2B RECEPTOR DUAL ANTAGONISTS FOR IMMUNO-ONCOLOGY” (Merck Sharp & Dohme LLC, priority 2020, published 2024).
# pIC50: −log10 of the molar value.
# Target: human A2A adenosine receptor (Homo sapiens (Human), UniProt P29274)
# Assay: A2A binding affinity using radioligand binding, Method (A)
# Conditions: Method (A): filtration radioligand binding, [3H] SCH58261, membranes expressing human A2A
# Source text: Method (A) describes the procedure used to measure A2A binding affinity using radioligand binding. Method (B) describes the procedure used to measure A2A binding affinity using SPA technology. The method used to measure A2B binding affinity is also described below. The method used to determine the A2A IC50 value reported for each compound in the table is indicated next to the reported value. The A2B IC50 value measured using the A2B binding affinity assay is shown in the table next to the compound under the corresponding A2A value.
# The A2A receptor affinity binding assay measured the amount of binding of a tritiated ligand with high affinity for the A2A adenosine receptor to membranes made from HEK293 or CHO cells recombinantly expressing the human A2A adenosine receptor, in the presence of varying concentrations of a compound of the invention. The data were generated using either filtration binding or a homogenous scintillation proximity assay (SPA).
# Method (A): Measurement of A2A Binding Affinity Using Radioligand Binding
# 148 μL (5 μg/mL) membranes (Perkin Elmer, Cat. No. RBHA2aM400UA) and 2 μL compounds of the invention to be tested (test compound) were transferred to individual wells of a 96-well polypropylene assay plate and incubated for 15 to 30 min at room temperature. [^3H] SCH58261 ((7-(2-phenylethyl)-5-amino-2-(2-furyl)-pyrazolo-[4,3-e]-1,2,4-triazolo[1,5-c]pyrimidine)) was diluted in assay buffer (50 mM Tris pH 7.4, 10 mM MgCl2, 0.005% Tween20) to a concentration of 4 nM and 50 μL transferred to each well of the assay plate. To define total and non-specific binding, wells containing 1% DMSO and 1 μM ZM241385 (Tocris Bioscience, Cat. No. 1036) respectively, were also included. The assay plate was incubated at room temperature for 60 min with agitation. Using a FilterMate Harvester® (Perkin Elmer), the contents of the assay plate were filtered through a UniFilter-96® PEI coated plate (Perkin Elmer Cat. No. 6005274 or 6005277). Filtering was achieved by aspirating the contents of the assay plate for 5 sec, then washing and aspirating the contents three times with ice-cooled wash buffer (50 mM Tris-HCl pH 7.4, 150 mM NaCl) and allowing the vacuum manifold to dry the plate for 30 sec. The filter plate was incubated for at least 1 h at 55° C. and allowed to dry. The bottom of the filter plate was sealed with backing tape. 40 μL Ultima Gold™ (Perkin Elmer, Cat. No. 6013329) was added to each well of the filter plate and the top of the plate was sealed with TopSeal-A PLUS® clear plate seal (Perkin Elmer, Cat. No. 6050185). The plate was incubated for at least 20 min, and then the amount of radioactivity remaining in each well was determined using a TopCount® (Perkin Elmer) scintillation counter. After normalization to total and non-specific binding, the percent effect at each compound concentration was calculated. The plot of percent effect versus the log of compound concentration was analyzed electronically using a 4-parameter logistic fit based on the Levenberg-Marquardt algorithm to generate IC50 values.
# Sequence of human A2A adenosine receptor (P29274 whole entry): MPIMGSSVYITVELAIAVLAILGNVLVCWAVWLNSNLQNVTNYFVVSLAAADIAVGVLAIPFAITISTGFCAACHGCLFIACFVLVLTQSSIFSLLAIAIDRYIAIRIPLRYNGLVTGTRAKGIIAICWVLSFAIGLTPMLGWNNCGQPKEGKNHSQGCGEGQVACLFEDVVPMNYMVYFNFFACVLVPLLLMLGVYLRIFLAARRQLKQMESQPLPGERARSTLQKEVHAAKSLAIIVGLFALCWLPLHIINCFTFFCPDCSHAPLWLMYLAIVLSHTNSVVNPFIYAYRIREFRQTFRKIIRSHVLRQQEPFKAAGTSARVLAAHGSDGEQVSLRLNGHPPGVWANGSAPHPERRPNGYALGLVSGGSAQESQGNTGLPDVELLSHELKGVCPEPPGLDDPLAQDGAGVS
row,pIC50,Structure (SMILES)
1,8.34,"COc1cc(F)cc2c1nc(N)n1nc(CCC3CCn4c(cnc4C4CC(F)(F)C4)C3)nc21 (single isomer, unassigned) [Example 7.3B, (R or S)-2-(2-(3-(3,3-difluorocyclobutyl)-5,6,7,8-tetrahydroimidazo-[1,5-a]pyridin-7-yl)ethyl)-9-fluoro-7-methoxy-[1,2,4]triazolo[1,5-c]-quinazolin-5-amine]"
2,8.59,"COc1cc(F)cc2c1nc(N)n1nc(CCC3CCc4c(cnn4C(C)C)C3)nc21 (single isomer, unassigned) [Example 7.7B, (R or S)-9-fluoro-2-(2-(1-isopropyl-4,5,6,7-tetrahydro-1H-indazol-5-yl)ethyl)-7-methoxy-[1,2,4]triazolo[1,5-c]quinazolin-5-amine]"
3,8.60,"COc1cccc2c1nc(N)n1nc(CCC3CCc4nn(C(C)C)cc4C3)nc21 (single isomer, unassigned) [Example 7.2A, (S or R)-2-(2-(2-isopropyl-4,5,6,7-tetrahydro-2H-indazol-5-yl)ethyl)-7-methoxy-[1,2,4]triazolo[1,5-c]quinazolin-5-amine]"
4,8.47,"COc1cccc2c1nc(N)n1nc(CCS(=N)(=O)C3CC3)nc21 (single isomer, unassigned) [Example 11.1B, (R or S)-(2-(5-amino-7-methoxy-[1,2,4]triazolo[1,5-c]quinazolin-2-yl)ethyl)(cyclopropyl)(imino)-λ^6-sulfanone]"
5,7.82,"COc1cc(F)cc2c1nc(N)n1nc(Cc3cnn(CCCC(C)(C)O)c3)nc21 [Example 16.4, 5-(4-((5-amino-9-fluoro-7-methoxy-[1,2,4]triazolo[1,5-c]quinazolin-2-yl)methyl)-1H-pyrazol-1-yl)-2-methylpentan-2-ol]"
6,9.15,"COc1cccc2c1nc(N)n1nc(CCC3CCc4c(nnn4C(C)C)C3)nc21 (single isomer, unassigned) [Example 5.2A, (S or R)-2-(2-(1-isopropyl-4,5,6,7-tetrahydro-1H-benzo[d][1,2,3]triazol-5-yl)ethyl)-7-methoxy-[1,2,4]triazolo[1,5-c]quinazolin-5-amine]"
7,8.64,"COc1cccc2c1nc(N)n1nc(CCC3CCc4nn(C(C)C)cc4C3)nc21 (single isomer, unassigned) [Example 7.2B, (R or S)-2-(2-(2-isopropyl-4,5,6,7-tetrahydro-2H-indazol-5-yl)ethyl)-7-methoxy-[1,2,4]triazolo[1,5-c]quinazolin-5-amine]"
8,9.30,"COc1cccc2c1nc(N)n1nc(CCC3CCn4c(cnc4C4CC(F)(F)C4)C3)nc21 (single isomer, unassigned) [Example 7.5B, (R or S)-2-(2-(3-(3,3-difluorocyclobutyl)-5,6,7,8-tetrahydroimidazo-[1,5-a]pyridin-7-yl)ethyl)-7-methoxy-[1,2,4]triazolo[1,5-c]-quinazolin-5-amine]"
9,8.26,"COc1cc(F)cc2c1nc(N)n1nc(CCC3CCc4nn(C(C)C)cc4C3)nc21 (single isomer, unassigned) [Example 5.4B, (R or S)-9-fluoro-2-(2-(2-isopropyl-4,5,6,7-tetrahydro-2H-indazol-5-yl)ethyl)-7-methoxy-[1,2,4]triazolo[1,5-c]quinazolin-5-amine]"
10,9.05,"COc1cccc2c1nc(N)n1nc(CCC3CCc4c(nnn4C4CC(F)(F)C4)C3)nc21 (single isomer, unassigned) [Example 5.3A, (S or R)-2-(2-(1-(3,3-difluorocyclobutyl)-4,5,6,7-tetrahydro-1H-benzo[d][1,2,3]triazol-5-yl)ethyl)-7-methoxy-[1,2,4]triazolo-[1,5-c]quinazolin-5-amine]"
11,8.47,"COc1cc(F)cc2c1nc(N)n1nc(CCC3(O)CCc4c(nnn4C4CC(F)(F)C4)C3)nc21 (single isomer, unassigned) [Example 14.3B, (R or S)-5-(2-(5-amino-9-fluoro-7-methoxy-[1,2,4]triazolo[1,5-c]quinazolin-2-yl)ethyl)-1-(3,3-difluorocyclobutyl)-4,5,6,7-tetrahydro-1H-benzo[d][1,2,3]triazol-5-ol]"
12,8.62,"COc1cccc2c1nc(N)n1nc(CCC3CCc4c(cnn4C(C)C)C3)nc21 (single isomer, unassigned) [Example 7.8B, (R or S)-2-(2-(1-isopropyl-4,5,6,7-tetrahydro-1H-indazol-5-yl)ethyl)-7-methoxy-[1,2,4]triazolo[1,5-c]quinazolin-5-amine]"
13,9.00,"COc1cc(F)cc2c1nc(N)n1nc(CCC3CCc4c(nnn4C4CC(F)(F)C4)C3)nc21 (single isomer, unassigned) [Example 7.6A, (S or R)-2-(2-(1-(3,3-difluorocyclobutyl)-4,5,6,7-tetrahydro-1H-benzo[d][1,2,3]triazol-5-yl)ethyl)-9-fluoro-7-methoxy-[1,2,4]-triazolo[1,5-c]quinazolin-5-amine]"
14,8.66,"COc1cccc2c1nc(N)n1nc(CCC3CCn4c(cnc4C4CC(F)(F)C4)C3)nc21 (single isomer, unassigned) [Example 7.5A, (S or R)-2-(2-(3-(3,3-difluorocyclobutyl)-5,6,7,8-tetrahydroimidazo-[1,5-a]pyridin-7-yl)ethyl)-7-methoxy-[1,2,4]triazolo[1,5-c]-quinazolin-5-amine]"
15,8.92,"COc1cccc2c1nc(N)n1nc(CCS(=N)(=O)C3CC3)nc21 (single isomer, unassigned) [Example 11.1A, (S or R)-(2-(5-amino-7-methoxy-[1,2,4]triazolo[1,5-c]quinazolin-2-yl)ethyl)(cyclopropyl)(imino)-26-sulfanone]"
16,7.36,"COc1cc(F)cc2c1nc(N)n1nc(Cc3cnn(CCC(C)(C)O)c3)nc21 [Example 16.5, 4-(4-((5-amino-9-fluoro-7-methoxy-[1,2,4]triazolo[1,5-c]-quinazolin-2-yl)methyl)-1H-pyrazol-1-yl)-2-methylbutan-2-ol]"
17,7.42,"CC(C)(N)c1ccc([C@@H]2C[C@H]2Cc2nc3c4cc(F)cc(F)c4nc(N)n3n2)cc1 [Example 8.3A, 2-(((1S,2R)-2-(4-(2-aminopropan-2-yl)phenyl)cyclopropyl)methyl)-7,9-difluoro-[1,2,4]triazolo[1,5-c]quinazolin-5-amine]"
18,8.96,"COc1cc(F)cc2c1nc(N)n1nc(CCC3(O)CCc4c(nnn4C4CC(F)(F)C4)C3)nc21 (single isomer, unassigned) [Example 14.3A, (S or R)-5-(2-(5-amino-9-fluoro-7-methoxy-[1,2,4]triazolo[1,5-c]quinazolin-2-yl)ethyl)-1-(3,3-difluorocyclobutyl)-4,5,6,7-tetrahydro-1H-benzo[d][1,2,3]triazol-5-ol]"
19,9.22,"COc1cccc2c1nc(N)n1nc(COC3CCc4c(nnn4C4CC(F)(F)C4)C3)nc21 (single isomer, unassigned) [Example 2.2B, (R or S)-2-(((1-(3,3-difluorocyclobutyl)-4,5,6,7-tetrahydro-1H-benzo[d][1,2,3]triazol-5-yl)oxy)methyl)-7-methoxy-[1,2,4]triazolo[1,5-c]quinazolin-5-amine]"
20,7.50,"Nc1nc2c(F)cc(F)cc2c2nc(CCC3CCn4c(cnc4C4CC(F)(F)C4)C3)nn12 (single isomer, unassigned) [Example 7.4A, (S or R)-2-(2-(3-(3,3-difluorocyclobutyl)-5,6,7,8-tetrahydroimidazo-[1,5-a]pyridin-7-yl)ethyl)-7,9-difluoro-[1,2,4]triazolo[1,5-c]-quinazolin-5-amine]"
21,8.55,"COc1cc(F)cc2c1nc(N)n1nc(CCC3CCn4c(cnc4C4CC(F)(F)C4)C3)nc21 (single isomer, unassigned) [Example 7.3A, (S or R)-2-(2-(3-(3,3-difluorocyclobutyl)-5,6,7,8-tetrahydroimidazo-[1,5-a]pyridin-7-yl)ethyl)-9-fluoro-7-methoxy-[1,2,4]triazolo[1,5-c]-quinazolin-5-amine]"
22,8.80,"COc1cccc2c1nc(N)n1nc(CCS(=O)(=O)C3CC3)nc21 [Example 13.3, 2-(2-(cyclopropylsulfonyl)ethyl)-7-methoxy-[1,2,4]triazolo[1,5-c]quinazolin-5-amine]"
